Values quoted from earlier work as cited in patent US20130216646A1, “Nanoparticles of Nutritional and Pharmaceutical Compounds” (priority 2011, published 2013).
Like-named read-outs stand apart in the source and are kept apart here.

Key:
[1] = dogs
[2] = for Sojourn time: another study
[3] = in vivo

## [Ca+2] [calcium]
Rat intestine, another study
  Share of calcium absorption occurring in the duodenum: 7%
  Share of calcium absorption occurring in the ileum: 65%
  Share of calcium absorption occurring in the jejunum: 17%
Rat small intestine, one study
  Share of calcium absorption occurring in the duodenum: 8%
  Share of calcium absorption occurring in the ileum: 88%
  Share of calcium absorption occurring in the jejunum: 4%
[1]
  Share of calcium absorption occurring in the duodenum: 4%
  Share of calcium absorption occurring in the ileum: 80%
  Share of calcium absorption occurring in the jejunum: 16%
[2]; rat duodenum
  Transit half-time: 6 min
  Sojourn time: 2.2 min
[2]; rat ileum
  Transit half-time: 102 min
  Sojourn time: 121.5 min
[3]
  Share of overall calcium absorption accounted for by the small intestine: about 90%
